≈ marks a conversion by molar mass, not a printed value.

In experiment [1] the test system is Mycobacterium tuberculosis. The experiment in a line: Antituberculosis activity against Mycobacterium tuberculosis at a concentration of 12.5 ug/mL. It counts as functional.
Experiment [2] relates to Mycobacterium tuberculosis. The experiment in a line: Minimum inhibitory concentration against Mycobacterium tuberculosis. It counts as functional.

For `O=c1cc(-c2ccc(Oc3c(-c4cccc([N+](=O)[O-])c4)oc4ccccc4c3=O)cc2)oc2ccccc12`, at 12.5 µg/mL the inhibition in experiment [1] was 61%.

In experiment [2], `COc1ccc(-c2cc(=O)c3c(OC)cc(OC)c(C4C(=O)c5c(OC)cc(OC)cc5OC4c4ccc(OC)cc4)c3o2)cc1` (centres undefined) registered a minimum inhibitory concentration (MIC) of 12.5 µg/mL (≈ 20 µM). The same compound returned an inhibition at 12.5 µg/mL in experiment [1] of 95%.

Turning to `O=C1CC(c2ccc(O)cc2)Oc2cc(O)c(-c3c(O)cc(O)c4c3OC(c3ccc(O)cc3)CC4=O)c(O)c21` (centres undefined), in experiment [1], testing at 12.5 µg/mL gave an inhibition of 0%.

With `COc1ccc(-c2cc(=O)c3c(OC)c(-c4cc(OC)ccc4-c4cc(=O)c5c(OC)cc(OC)cc5o4)c(OC)cc3o2)cc1`, the inhibition at 12.5 µg/mL in experiment [1] worked out at 1%.

In experiment [1], `O=c1cc(-c2cccc(-c3cccc4c(=O)cc(-c5ccccc5)oc34)c2)oc2ccccc12` gave an inhibition at 12.5 µg/mL of 49%.

`COc1ccc2c(c1)OC(c1ccccc1)C(C1C(=O)c3ccc(OC)cc3OC1c1ccccc1)C2=O` (centres undefined): the inhibition at 12.5 µg/mL in experiment [1] stood at 0%.

As for `CC(=O)Oc1ccc(C2CC(=O)c3c(cc(OC(C)=O)c(-c4c(OC(C)=O)cc(OC(C)=O)c5c4OC(c4ccc(OC(C)=O)cc4)CC5=O)c3OC(C)=O)O2)cc1` (centres undefined), the inhibition at 12.5 µg/mL in experiment [1] turned out to be 0%.

For `O=C1c2c(O)cc(O)cc2OC(c2ccc(O)cc2)C1c1c(O)cc(O)c2c(=O)cc(-c3ccc(O)c(O)c3)oc12` (centres undefined), in experiment [1], the inhibition at 12.5 µg/mL is 0%.

`COc1ccc(C2CC(=O)c3c(OC)cc(OC)c(C4C(=O)c5c(OC)cc(OC)cc5OC4c4ccc(OC)cc4)c3O2)cc1` (centres undefined) gave a minimum inhibitory concentration (MIC) in experiment [2] greater than 12.5 µg/mL. Besides, the inhibition at 12.5 µg/mL in experiment [1] came to 87%.

For `COc1ccc(C2CC(=O)c3c(cc(OC)c(-c4c(OC)cc5c(c4OC)C(=O)CC(c4ccc(OC)cc4)O5)c3OC)O2)cc1` (centres undefined), testing at 12.5 µg/mL in experiment [1] gave an inhibition of 2%.

For the compound `O=C1CC(c2ccc(O)c(O)c2)Oc2c1c(O)cc(O)c2C1C(=O)c2c(O)cc(O)cc2OC1c1ccc(O)cc1` (centres undefined), in experiment [1], the inhibition at 12.5 µg/mL was 0%.

`O=c1cc(-c2ccccc2)oc2ccc(-c3ccccc3-c3cc(=O)c4ccccc4o3)cc12` returned an inhibition at 12.5 µg/mL in experiment [1] of 9%.

With `CC(=O)Oc1ccc(C2Oc3cc(OC(C)=O)cc(OC(C)=O)c3C(=O)C2c2c(OC(C)=O)cc(OC(C)=O)c3c2OC(c2ccc(OC(C)=O)c(OC(C)=O)c2)CC3=O)cc1` (centres undefined), the inhibition at 12.5 µg/mL in experiment [1] was 0%.

In experiment [2], `COc1ccc(-c2cc(=O)c3c(OC)c(-c4c(OC)cc5oc(-c6ccc(OC)cc6)cc(=O)c5c4OC)c(OC)cc3o2)cc1` had an MIC greater than 12.5 µg/mL. This compound also showed an inhibition at 12.5 µg/mL in experiment [1] of 96%.

As to `O=C1CC(c2ccc(O)cc2)Oc2cc(O)c(-c3c(O)cc4c(c3O)C(=O)CC(c3ccc(O)cc3)O4)c(O)c21` (centres undefined), testing at 12.5 µg/mL in experiment [1] gave an inhibition of 0%.

In experiment [1], `O=c1cc(-c2cccc(-c3ccc4c(=O)cc(-c5ccccc5)oc4c3)c2)oc2ccccc12` displayed an inhibition at 12.5 µg/mL of 0%.

In the case of `COc1ccc(-c2oc3cc(OC)cc(OC)c3c(=O)c2-c2c(-c3ccc(OC)cc3)oc3cc(OC)cc(OC)c3c2=O)cc1`, in experiment [1], the inhibition at 12.5 µg/mL is 0%.

With `O=c1cc(-c2ccccc2-c2cccc3c(=O)cc(-c4ccccc4)oc23)oc2ccccc12`, testing at 12.5 µg/mL in experiment [1] gave an inhibition of 0%.

As to `CC(=O)Oc1ccc(C2CC(=O)c3c(cc(OC(C)=O)c(-c4c(OC(C)=O)cc5c(c4OC(C)=O)C(=O)CC(c4ccc(OC(C)=O)cc4)O5)c3OC(C)=O)O2)cc1` (centres undefined), the inhibition at 12.5 µg/mL in experiment [1] was found to be 0%.

Consider `O=C1CC(c2ccc(O)c(O)c2)Oc2c1c(O)cc(O[C@]1(O)O[C@H](CO)[C@@H](O)C(O)[C@H]1O)c2C1C(=O)c2c(O)cc(O)cc2OC1c1ccc(O)cc1` (single isomer, unassigned), for which at 12.5 µg/mL the inhibition in experiment [1] was 0%.

Turning to `O=C1CC(c2ccc(O)cc2)Oc2c1c(O)cc(O[C@]1(O)O[C@H](CO)[C@@H](O)C(O)[C@H]1O)c2C1C(=O)c2c(O)cc(O)cc2OC1c1ccc(O)cc1` (single isomer, unassigned), in experiment [1], the inhibition at 12.5 µg/mL stood at 0%.

Turning to `O=C1c2c(O)cc(O)cc2OC(c2ccc(O)cc2)C1c1c(O[C@]2(O)O[C@H](CO)[C@@H](O)C(O)[C@H]2O)cc(O)c2c(=O)cc(-c3ccc(O)cc3)oc12` (single isomer, unassigned), in experiment [1], the inhibition at 12.5 µg/mL was found to be 0%.

In experiment [1], `CC(=O)OC[C@H]1O[C@@](O)(Oc2cc(OC(C)=O)c3c(c2C2C(=O)c4c(OC(C)=O)cc(OC(C)=O)cc4OC2c2ccc(OC(C)=O)cc2)OC(c2ccc(OC(C)=O)cc2)CC3=O)[C@H](O)C(O)[C@@H]1O` (single isomer, unassigned) showed an inhibition at 12.5 µg/mL of 0%.

With `O=c1cc(-c2ccc(O)c(-c3c(O)cc(O)c4c(=O)cc(-c5ccc(O)cc5)oc34)c2)oc2cc(O)cc(O)c12` [AMENTOFLAVONE], 12.5 µg/mL produced 0% inhibition in experiment [1].

Regarding `O=c1cc(-c2ccc(Oc3c(O)cc4oc(-c5ccc(O)cc5)cc(=O)c4c3O)cc2)oc2cc(O)cc(O)c12` [HINOKIFLAVONE], in experiment [1], the inhibition at 12.5 µg/mL was determined as 0%.

With `O=c1cc(-c2ccc(O)c(-c3c(O)cc4oc(-c5ccc(O)cc5)cc(=O)c4c3O)c2)oc2cc(O)cc(O)c12` [ROBUSTAFLAVONE], the inhibition at 12.5 µg/mL in experiment [1] came to 0%.
